{"source": "patent US20220411759A1", "about": "“ENDOCRINE DIFFERENTIATION-INDUCING MOLECULE” (President and Fellows of Harvard College, priority 2019, published 2022)", "key": {"[1]": {"test_system": "HUES8 human embryonic stem cells", "experiment": "Flow cytometry of cell proportions during directed differentiation of hESCs into β cells", "format": "cell-based", "procedure": "(§1) HUES8 ([…]) human embryonic stem cells and human induced pluripotent stem cells (hiPSCs) from line 1016 (person) were obtained from the Human Embryonic Stem Cell Facility and iPS Core Facility of the Harvard Stem Cell Institute. Cells were differentiated into beta like cells in suspension as described previously^37. Briefly, 150Xe^6 cells were suspended in 300 ml of supplemented mTeSR1 and grown in spinning flasks (70 rpm, 37° C., 5% CO2) for 48 hours prior to the beginning of a stepwise differentiation protocol:\nStage 4—5 days in S3 medium supplemented with KGF (50 ng/ml), Sant1 (0.25 μM) and retinoic acid (0.1 μM).\nStage 5—7 days in BE5 medium supplemented with Beta Cellulin (20 ng/ml). XXI (1 μM), Alk5ill(10 μM) and T3 (1 μM). Sant1 (0.25 μM) was added in the first three days, and retinoic acid was added at 0.1 μM in the first three days, then at 0.025 μM.\nStage 6—CMRLS medium supplemented with Alk5iII (10 μM) and T3 (1 μM).\nIn many of the experiments following cell collection for sc-RNAseq, the protocol was slightly modified to add Y-27632 (10 μM) at stage 3-5, and ActivinA (5 ng/ml) in stage 4. In some cases, an extra day at stage 4 was also added. For the presented functional and flow cytometry analysis in stage 6, CMRLS based media was replaced with S3 medium, without supplements.\n(§2) Factors were tested in either 6-well plates placed on a rocker, or in Biott ABLE Bioreactors (Stemgent). IWR1-endo (Sigma-Aldrich) was used at 5 μM. XAV939 (Santa Cruz, SC-296704A) was used at 5 μM. Recombinant human BMP2/BMP7 (Thermo-Fisher) was used at […]. when added during stage 4, CHIR99021 was used at a concentration of […].\nDifferentiated cell clusters were dispersed into single-cell suspension by incubation in TrypLE Express at 37° C., quenched with PBS+2% FBS, fixed with 4% PFA for 30 min at 4° C., washed once in PBS, and resuspended in PBS+2% FBS. Staining was done in 96-well plates. Cells were incubated in blocking buffer (PBS+0.1% Triton X-100+5% donkey serum) at 4° C. for 30-60 min. Cells were then re-suspended in blocking buffer with primary antibodies and incubated at room temperature for 1 hour or at 4° C. overnight. Cells were washed twice in blocking buffer and incubated in blocking buffer with secondary antibodies at 4° C. for 1 hour. Cells were then washed three times in PBS+5% Donkey serum and analyzed using either the BD Accuri c6 flow cytometer or the LSR-II flow cytometer (BD Biosciences). Analysis of the results was performed using FlowJo software."}, "[2]": {"test_system": "human induced pluripotent stem cells (hiPSCs) from line 1016", "experiment": "Flow cytometry of cell proportions during directed differentiation of hiPSC-1016", "format": "cell-based", "settings": "stage 5", "procedure": "as §1, §2\nDifferentiated cell clusters were dispersed into single-cell suspension by incubation in TrypLE Express at 37° C., quenched with PBS+2% FBS, fixed with 4% PFA for 30 min at 4° C., washed once in PBS, and resuspended in PBS+2% FBS. Staining was done in 96-well plates. Cells were incubated in blocking buffer (PBS+0.1% Triton X-100+5% donkey serum) at 4° C. for 30-60 min. […] Cells were then washed three times in PBS+5% Donkey serum and analyzed using either the BD Accuri c6 flow cytometer or the LSR-II flow cytometer (BD Biosciences). […]"}, "[3]": {"test_system": "in vitro generated β cells", "experiment": "Glucose stimulated insulin secretion (GSIS) of stage 6 cells", "format": "cell-based, human", "procedure": "Differentiated cells were washed twice in Krebs buffer (Krb) containing 2.8mM glucose, and then distributed into 24-well plates containing Millicell Cell culture inserts for easy transfer between conditions. Each well received 0.5 ml buffer with approximately 10^6 cells. After fasting in 2.8 mM glucose for 1 hour in 37° C., the analysis of the cells' response to changing glucose levels was performed by a series of 1 hour incubations in 37° C., in the following order: 1) 2.8 mM (low) glucose. 2) 20 mM (high) glucose. 3) brief wash in 2.8 mM glucose. 4) 1 hour incubation in 2.8 mM glucose. 5) 20 mM glucose. 6) 2.8 mM glucose with 30 mM KCL. At the end of each step (excluding the wash), the incubation buffer was collected and the amount of insulin secreted during the hour's incubation was determined using human insulin ELISA kit (ALPCO diagnostics; 80-INSHUU-E01.1). Clusters were then dispersed into single cells using TrypLE Express (Life Technologies), and cell number was counted automatically by a Vi-Cell (Beckman Coulter)."}, "[4]": {"test_system": "differentiating hESC clusters", "experiment": "Nanostring mRNA expression of endocrine, hormone and progenitor markers in differentiating clusters", "format": "cell-based, human", "settings": "treatment during both stages 4 and 5; relative to control", "procedure": "as §2\nCells were collected for RNA extraction in RLT Lysis Buffer (Qiagen) and frozen at −80° C. RNA was extracted using the RNeasy Mini Kit (Qiagen), according the manufacturer's instructions—including DNA digestion, and 100 ng of RNA was used for each reaction. Nanostring set up was performed according to the protocol for the nCounter XT Gene Expression Assay. Data was analyzed in the nSolver 2.5 Software. All genes were normalized to housekeeping genes (ITCH, RPL15, RPL19, TCEB1, UBE2D3). Analysis of changes in gene expression of markers for endocrine and progenitor cells was done using R."}, "[5]": {"test_system": "differentiating hESC clusters", "experiment": "Cell concentration in differentiation batches during stage 6", "format": "cell-based, human", "settings": "treatment during stage 5, vs control", "procedure": "The relative changes in gene expression relative to control conditions are presented in log values, for two independent experiments. FIG. 9E provides cell concentration in the differentiation batches analyzed in FIG. 4H. […] Bars show the average±S.E. n, from left to right: 8 (7 for IWR), 6, 8, 7, 6. […] The bars show geometric mean±S.E. of the fold change in insulin secretion following the transition from low (2.8 mM) to high (20 mM) glucose levels. FIG. 9F provides fold change in insulin secretion after one stimulation with high glucose. From left to right: n=5,6,6,3; 2-way ANOVA on log(Fold insulin secretion): p-value=0.83 and 0.16 for differences caused by the treatment or the day of analysis, respectively. […]\nDifferentiated cells were washed twice in Krebs buffer (Krb) containing 2.8mM glucose, and then distributed into 24-well plates containing Millicell Cell culture inserts for easy transfer between conditions. […] At the end of each step (excluding the wash), the incubation buffer was collected and the amount of insulin secreted during the hour's incubation was determined using human insulin ELISA kit (ALPCO diagnostics; 80-INSHUU-E01.1). Clusters were then dispersed into single cells using TrypLE Express (Life Technologies), and cell number was counted automatically by a Vi-Cell (Beckman Coulter)."}, "[6]": {"test_system": "differentiating hESC clusters", "settings": "Activin A and Y-27632 given together during stage 4; cited from earlier work"}, "[7]": {"settings": "factor added during stage 4, flow cytometry at end of stage 4, vs control"}, "[8]": {"settings": "XXI removed from the media during stage 5, flow cytometry at end of stage 5, vs control with XXI"}}, "data": [{"molecule": "Cc1c[nH]c(-c2cnc(NCCNc3ccc(C#N)cn3)nc2-c2ccc(Cl)cc2Cl)n1", "note": "[CHIR99021]", "values": [{"measurement": "number / proportion of CHGA+ endocrine cells", "setting": "[1]; [7]", "result": "decreased"}]}, {"molecule": "O=C(Nc1cccc2cccnc12)c1ccc(N2C(=O)[C@@H]3[C@H](C2=O)[C@@H]2C=C[C@H]3C2)cc1", "note": "[IWR1-endo]", "values": [{"measurement": "proportion of hiPSC-1016 derived CHGA+ cells", "setting": "[2]", "result": "increases"}, {"measurement": "number / proportion of CHGA+ endocrine cells", "setting": "[1]; [7]", "result": "significantly raised"}, {"measurement": "number / proportion of PDX1+/NKX6.1+ progenitors", "setting": "[1]; [7]", "result": "reduced"}, {"measurement": "overall yield of in vitro generated β cells", "setting": "[1]; treatment during stage 5, concluded from β cell proportion and cell numbers", "result": "increases"}, {"measurement": "increase in proportion of C-PEP+/NKX6.1+ β cells, on average, relative to controls", "setting": "[1]; treatment during stage 5, flow cytometry at end of stage 5", "result": "more than 50%"}, {"measurement": "proportion of CHGA+ endocrine cells", "setting": "[1]; treatment during stage 5, flow cytometry at end of stage 5, compared with the stage 4 effect", "result": "even higher relative increase"}, {"measurement": "insulin secretion in response to high glucose levels (first stimulation)", "setting": "[3]; treatment during stage 5, 2.8 mM to 20 mM glucose", "result": "maintain their ability to secrete insulin"}, {"measurement": "insulin release on second stimulation with high glucose, compared to controls", "setting": "[3]; treatment during stage 5, consecutive stimulations, 20 mM glucose", "result": "release less insulin in the second challenge"}, {"measurement": "expression of endocrine markers", "setting": "[4]", "result": "increased expression"}, {"measurement": "expression of progenitor markers", "setting": "[4]", "result": "downregulated"}, {"measurement": "overall cell numbers / cell concentration during stage 6", "setting": "[5]", "result": "slightly increased"}, {"measurement": "overall cell numbers / cell concentration during stage 6", "setting": "[5]; listed as IWR", "result": "slightly higher"}]}, {"molecule": "C[C@H](NC(=O)Cc1cc(F)cc(F)c1)C(=O)N[C@H]1N=C(c2ccccc2)c2ccccc2N(C)C1=O", "note": "[XXI]", "values": [{"measurement": "number of CPEP+NKX6.1+ β cells", "setting": "[1]; [8]", "result": "dramatically reduced"}, {"measurement": "number of GLP2+ α cells", "setting": "[1]; [8]", "result": "did not significantly affect"}]}, {"molecule": "C[C@@H](N)[C@H]1CC[C@H](C(=O)Nc2ccncc2)CC1", "note": "[Y-27632]", "values": [{"measurement": "appearance of buds on the clusters' surface", "setting": "[6]", "result": "induces"}]}, {"molecule": "Activin A: protein factor (R&D Systems) added to differentiation media (protein, UniProt P08476 311-426, looked up, Inhibin beta A chain, protein factor (R&D Systems) added to differentiation media) Inhibin beta A chain: GLECDGKVNICCKKQFFVSFKDIGWNDWIIAPSGYHANYCEGECPSHIAGTSGSSLSFHSTVINHYRMRGHSPFANLKSCCVPTKLRPMSMLYYDDGQNIIKKDIQNMIVEECGCS", "values": [{"measurement": "appearance of buds on the clusters' surface", "setting": "[6]", "result": "induces"}]}]}
